For orientation: IC50 means the concentration at which inhibition is half-maximal.

One experiment addresses T1, p53-Y220C mutant protein (Homo sapiens, UniProt P04637, Y220C).
T1 construct: The recombinant Y220C p53 DBD protein with his-tag
Kind of experiment: In vitro DNA binding activity assay (TR-FRET). The class given is biochemical. The conditions noted are these: concentration required to increase the binding activity of protein to DNA by 50%. In a few lines: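 His-tagged Y220C p53 DBD was equilibrated with compound 60 min at room temperature, then biotin-DNA, anti-6His-Eu and streptavidin-d2 were added and incubated overnight in the dark. TR-FRET 665/615 nm ratio, background-corrected, was expressed as % activity versus vehicle; SC150 is the concentration raising DNA binding by 50%.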
For orientation: Time-resolved FRET reads energy transfer from a long-lived donor to a nearby acceptor.

Another experiment relates to NUGC-3 cells. Kind of experiment: NUGC-3 cell proliferation assay (CTG, 7 days). The class given is cell-based, human. Conditions: Homo sapiens, NUGC-3, 168 h, NUGC-3 cell proliferation, 7 days, CTG; read-out: IC50. The method, boiled down: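 Cells (200/well) in 1640 medium with 10% serum exposed to 10-point, 3-fold DMSO dilutions (duplicates) for 7 days at 37°C. Viability read by CellTiter-Glo luminescence; % inhibition normalized to DMSO and blank, IC50 from variable-slope nonlinear fit.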

On p53-Y220C mutant protein, `CN1CC[C@@H](Nc2cccc3c(CC(F)(F)F)c(C#CCNC(=O)c4ccn(C5(C)CC5)c4)nn23)[C@@H](F)C1` [Compound 313, N-[3-(7-{[(3S,4R)-3-fluoro-1-methylpiperidin-4-yl]amino}-3-(2,2,2-trifluoroethyl)pyrazolo[1,5-a]pyridin-2-yl)prop-2-yn-1-yl]-1-(1-methylcyclopropyl)-1H-pyrrole-3-carboxamide] gave an SC150 of 28 nM. Further, the IC50 in the experiment on NUGC-3 cells came to 1370 nM.

`CN1CC[C@@H](Nc2cccc3c(CC(F)(F)F)c(C#CCNC(=O)c4ccc(N5CCC5)nc4)nn23)[C@@H](F)C1` [Compound 314, 6-(azetidin-1-yl)-N-[3-(7-{[(3S,4R)-3-fluoro-1-methylpiperidin-4-yl]amino}-3-(2,2,2-trifluoroethyl)pyrazolo[1,5-a]pyridin-2-yl)prop-2-yn-1-yl]-3-nicotinamide] displayed an SC150 on p53-Y220C mutant protein of 35 nM. Besides, the IC50 in the experiment on NUGC-3 cells amounted to 1200 nM.

With `CN1CC[C@@H](Nc2cccc3c(CC(F)(F)F)c(C#CCNC(=O)c4ccc(N5CCCC5)nc4)nn23)[C@@H](F)C1` [Compound 315, N-[3-(7-{[(3S,4R)-3-fluoro-1-methylpiperidin-4-yl]amino}-3-(2,2,2-trifluoroethyl)pyrazolo[1,5-a]pyridin-2-yl)prop-2-yn-1-yl]-6-(pyrrolidin-1-yl)nicotinamide], on p53-Y220C mutant protein, the SC150 was 52 nM. Further, the IC50 in the experiment with NUGC-3 cells worked out at 1240 nM.

With `CN1CC[C@@H](Nc2cccc3c(CC(F)(F)F)c(C#CCNC(=O)c4ccc(N5CCCCC5)nc4)nn23)[C@@H](F)C1` [Compound 316, N-[3-(7-{[(3S,4R)-3-fluoro-1-methylpiperidin-4-yl]amino}-3-(2,2,2-trifluoroethyl)pyrazolo[1,5-a]pyridin-2-yl)prop-2-yn-1-yl]-6-(piperidin-1-yl)nicotinamide], the SC150 at p53-Y220C mutant protein is 97 nM. The IC50 in the experiment with NUGC-3 cells stood at 2160 nM.

On to `Cc1cc(C(=O)NCC#Cc2nn3c(N[C@@H]4CCN(C)C[C@@H]4F)cccc3c2CC(F)(F)F)[nH]c1C` [Compound 317, N-[3-(7-{[(3S,4R)-3-fluoro-1-methylpiperidin-4-yl]amino}-3-(2,2,2-trifluoroethyl)pyrazolo[1,5-a]pyridin-2-yl)prop-2-yn-1-yl]-4,5-dimethyl-1H-pyrrole-2-carboxamide], for which the SC150 at p53-Y220C mutant protein is listed as 44 nM. Further, the IC50 in the experiment on NUGC-3 cells turned out to be 1290 nM.

In turn, `Cc1nc(C(=O)NCC#Cc2nn3c(N[C@@H]4CCN(C)C[C@@H]4F)cccc3c2CC(F)(F)F)cn1C` [Compound 318, N-[3-(7-{[(3S,4R)-3-fluoro-1-methylpiperidin-4-yl]amino}-3-(2,2,2-trifluoroethyl)pyrazolo[1,5-a]pyridin-2-yl)prop-2-yn-1-yl]-1,2-dimethyl-1H-imidazole-4-carboxamide] registered an SC150 at p53-Y220C mutant protein of 59 nM. For the same compound, the half-maximal inhibitory concentration (IC50) in the experiment on NUGC-3 cells was determined as 1700 nM.

`CN1CC[C@@H](Nc2cccc3c(CC(F)(F)F)c(C#CCNC(=O)c4cn(C)cn4)nn23)[C@@H](F)C1` [Compound 319, N-[3-(7-{[(3S,4R)-3-fluoro-1-methylpiperidin-4-yl]amino}-3-(2,2,2-trifluoroethyl)pyrazolo[1,5-a]pyridin-2-yl)prop-2-yn-1-yl]-1-methyl-1H-imidazole-4-carboxamide] returned an SC150 at p53-Y220C mutant protein of 41 nM. Besides, the half-maximal inhibitory concentration (IC50) in the experiment with NUGC-3 cells is 1370 nM.

As to `CC(C)n1cnc(C(=O)NCC#Cc2nn3c(N[C@@H]4CCN(C)C[C@@H]4F)cccc3c2CC(F)(F)F)c1` [Compound 320, N-[3-(7-{[(3S,4R)-3-fluoro-1-methylpiperidin-4-yl]amino}-3-(2,2,2-trifluoroethyl)pyrazolo[1,5-a]pyridin-2-yl)prop-2-yn-1-yl]-1-isopropyl-1H-imidazole-4-carboxamide], on p53-Y220C mutant protein, the SC150 turned out to be 28 nM. In the experiment on NUGC-3 cells, the IC50 amounted to 1560 nM.

For the compound `CN1CC[C@@H](Nc2cccc3c(CC(F)(F)F)c(C#CCNC(=O)c4cc(Cl)n(C)c4)nn23)[C@@H](F)C1` [Compound 326, 5-chloro-N-(3-(7-{[(3S,4R)-3-fluoro-1-methylpiperidin-4-yl]amino}-3-(2,2,2-trifluoroethyl)pyrazolo[1,5-a]pyridin-2-yl)prop-2-yn-1-yl)-1-methyl-1H-pyrrole-3-carboxamide], the SC150 at p53-Y220C mutant protein is recorded as 28 nM. Moreover, in the experiment with NUGC-3 cells, the half-inhibitory concentration (IC50) amounted to 1180 nM.

With `CN1CC[C@@H](Nc2cccc3c(CC(F)(F)F)c(C#CCNC(=O)c4ccc(N(C)C)nc4)nn23)[C@@H](F)C1` [Compound 328, 6-dimethylamino-N-[3-(7-{[(3S,4R)-3-fluoro-1-methylpiperidin-4-yl]amino}-3-(2,2,2-trifluoroethyl)pyrazolo[1,5-a]pyridin-2-yl)prop-2-yn-1-yl]pyridine-3-carboxamide], on p53-Y220C mutant protein, the SC150 amounted to 30 nM. Besides, the concentration for half-maximal inhibition (IC50) in the experiment on NUGC-3 cells amounted to 1210 nM.

As to `CCc1ccc(C(=O)NCC#Cc2nn3c(N[C@@H]4CCN(C)C[C@@H]4F)cccc3c2CC(F)(F)F)cn1` [Compound 331, 6-ethyl-N-[3-(7-{[(3S,4R)-3-fluoro-1-methylpiperidin-4-yl]amino}-3-(2,2,2-trifluoroethyl)pyrazolo[1,5-a]pyridin-2-yl)prop-2-yn-1-yl]pyridine-3-carboxamide], on p53-Y220C mutant protein, the SC150 is 36 nM. Further, the IC50 in the experiment on NUGC-3 cells is 1720 nM.

Turning to `Cc1ccc(C(=O)NCC#Cc2nn3c(N[C@@H]4CCN(C)C[C@@H]4F)cccc3c2CC(F)(F)F)cn1` [Compound 332, N-[3-(7-{[(3S,4R)-3-fluoro-1-methylpiperidin-4-yl]amino}-3-(2,2,2-trifluoroethyl)pyrazolo[1,5-a]pyridin-2-yl)prop-2-yn-1-yl]-6-methylnicotinamide], the SC150 on p53-Y220C mutant protein was 29 nM. Also, the IC50 in the experiment with NUGC-3 cells was 1710 nM.

Compound `CC(C)(C)n1ncc(C(=O)NCC#Cc2nn3c(N[C@@H]4CCNC[C@@H]4F)cccc3c2CC(F)(F)F)c1N` [Compound 353-4, 5-amino-1-tert-butyl-N-[3-(7-{[(3S,4R)-3-fluoropiperidin-4-yl]amino}-3-(2,2,2-trifluoroethyl)pyrazolo[1,5-a]pyridin-2-yl)prop-2-yn-1-yl]-1H-pyrazole-4-carboxamide] yielded an SC150 at p53-Y220C mutant protein of 9 nM. Also, in the experiment with NUGC-3 cells, the IC50 stood at 181 nM.

In turn, `CCN1CC[C@@H](Nc2cccc3c(CC(F)(F)F)c(C#CCNC(=O)c4cnn(C(C)C)c4N)nn23)[C@@H](F)C1` [Compound 365, 5-amino-N-(3-(7-{[(3S,4R)-1-ethyl-3-fluoropiperidin-4-yl]amino}-3-(2,2,2-trifluoroethyl)pyrazolo[1,5-a]pyridin-2-yl)prop-2-yn-1-yl)-1-isopropyl-1H-pyrazole-4-carboxamide] yielded an SC150 on p53-Y220C mutant protein of 5 nM. For the same compound, in the experiment with NUGC-3 cells, the IC50 was 127 nM.

The values above are taken from patent EP4737449A1 (Changchun Genescience Pharmaceutical Co., Ltd., priority 2023, dated 2025).
